{"source": "EPA's ToxRefDB 2", "key": {"dog [1]": {"tested_on": "dog", "conditions": "Chronic toxicity; beagle; Oral; Capsule; dose end: 52 week; group: systemic; systemic / in life observation / clinical signs / ataxia + systemic / in life observation / clinical signs / squinting + systemic / in life …"}, "mouse [2]": {"tested_on": "mouse", "conditions": "Carcinogenicity, cd1, Oral, Feed, dose end: 81 week, group: systemic"}, "mouse [3]": {"tested_on": "mouse", "conditions": "Sub-acute repeat dose toxicity, cd1, Oral, Feed, dose end: 5 week, group: systemic"}, "rabbit [4]": {"tested_on": "rabbit", "conditions": "Prenatal developmental toxicity study, new zealand white, Oral, Gavage/Intubation, dose end: 19 GD"}, "rat [5]": {"tested_on": "rat", "conditions": "Combined chronic toxicity/carcinogenicity, fischer, Oral, [Not Specified], dose end: 123 week, group: systemic"}, "rabbit [6]": {"tested_on": "rabbit", "conditions": "Prenatal developmental toxicity study, himalayan, Oral, Gavage/Intubation, dose end: 19 GD"}, "rat [7]": {"tested_on": "rat", "conditions": "Multigenerational reproductive toxicity study, other, Oral, Feed, dose end: 2 generation"}, "mouse [8]": {"tested_on": "mouse", "conditions": "Carcinogenicity, other, Oral, Feed, dose end: 18 month, group: systemic"}, "rat [9]": {"tested_on": "rat", "conditions": "Combined chronic toxicity/carcinogenicity, other, Oral, Feed, dose end: 24 month, group: systemic"}, "rat [10]": {"tested_on": "rat", "conditions": "Subchronic oral toxicity in rodents, sprague dawley, Feed, dose end: 3 month, group: systemic"}, "rat [11]": {"tested_on": "rat", "conditions": "Prenatal developmental toxicity study, sprague-dawley, Oral, Gavage/Intubation, dose end: 15 GD"}, "dog [12]": {"tested_on": "dog", "conditions": "Chronic toxicity, beagle, Oral, Feed, dose end: 52 week, group: systemic"}, "dog [13]": {"tested_on": "dog", "conditions": "Subchronic oral toxicity in nonrodent, beagle, Feed, dose end: 90 day, group: systemic, systemic / clinical chemistry / albumin / albumin + systemic / clinical chemistry / albumin-globulin ratio / albumin-globulin ratio + …"}, "[14]": {"conditions": "systemic / organ weight / liver / relative to body weight + systemic / pathology microscopic / liver / fatty change"}, "[15]": {"conditions": "systemic / organ weight / liver / relative to body weight + systemic / pathology microscopic / liver / fatty change + systemic / pathology …"}, "[16]": {"conditions": "systemic / clinical chemistry / alanine aminotransferase (alt/sgpt) / alanine aminotransferase (alt/sgpt) + systemic / clinical chemistry / …"}, "[17]": {"conditions": "systemic / clinical chemistry / triglycerides / triglycerides"}, "[18]": {"conditions": "group: developmental, developmental / developmental malformation / bone / fused + developmental / developmental malformation / bone / thoracic hemivertebra"}, "[19]": {"conditions": "group: maternal, systemic / in life observation / body weight / body weight gain + systemic / in life observation / clinical signs / convulsions + systemic…"}, "[20]": {"conditions": "systemic / organ weight / liver / absolute + systemic / organ weight / liver / relative to body weight + systemic / urinalysis / specific …"}, "[21]": {"conditions": "group: developmental, developmental / developmental malformation / heart / misshapen"}, "[22]": {"conditions": "group: maternal, systemic / in life observation / clinical signs / hemorrhagic perineal discharge + systemic / in life observation / mortality / mortality"}, "[23]": {"conditions": "group: maternal, systemic / in life observation / clinical signs / hemorrhagic perineal discharge + systemic / in life observation / mortality / mortality + …"}, "[24]": {"conditions": "group: offspring, systemic / in life observation / body weight / offspring (pup) weight + systemic / organ weight / spleen / absolute + systemic / organ …"}, "[25]": {"conditions": "group: parental, systemic / in life observation / body weight / body weight + systemic / in life observation / body weight / body weight gain + systemic / in…"}, "[26]": {"conditions": "systemic / in life observation / body weight / body weight + systemic / in life observation / body weight / body weight gain"}, "[27]": {"conditions": "systemic / in life observation / body weight / body weight + systemic / in life observation / body weight / body weight gain + systemic / in…"}, "[28]": {"conditions": "systemic / pathology microscopic / kidney / atrophy"}, "[29]": {"conditions": "systemic / pathology microscopic / kidney / atrophy + systemic / in life observation / body weight / body weight + systemic / in life …"}, "[30]": {"conditions": "systemic / in life observation / body weight / body weight + systemic / in life observation / body weight / body weight gain + systemic / …"}, "[31]": {"conditions": "group: developmental, developmental / developmental malformation / bone / unossified + developmental / developmental malformation / bone / [other]"}, "[32]": {"conditions": "group: developmental, developmental / developmental malformation / bone / unossified + developmental / developmental malformation / bone / [other] + developmental…"}, "[33]": {"conditions": "group: maternal, systemic / in life observation / body weight / body weight gain + systemic / in life observation / food consumption / food consumption"}, "[34]": {"conditions": "systemic / pathology gross / lung / foci + systemic / in life observation / body weight / body weight gain + systemic / pathology …"}}}
{"smiles": "C=CCC1=C(C)C(OC(=O)C2C(C=C(C)C)C2(C)C)CC1=O", "note": "(stereo not drawn) [Allethrin]", "values": [{"measurement": "LEL", "setting": "dog [1]", "value": 20, "unit": "mg/kg/day"}, {"measurement": "LOAEL", "setting": "dog [1]", "value": 20, "unit": "mg/kg/day"}, {"measurement": "NEL", "setting": "dog [1]", "value": 6, "unit": "mg/kg/day"}, {"measurement": "NOAEL", "setting": "dog [1]", "value": 6, "unit": "mg/kg/day"}, {"measurement": "NEL", "setting": "mouse [2]; [14]", "value": 71.6, "unit": "mg/kg/day"}, {"measurement": "NOAEL", "setting": "mouse [2]; [14]", "value": 71.6, "unit": "mg/kg/day"}, {"measurement": "LEL", "setting": "mouse [2]; [15]", "value": 350, "unit": "mg/kg/day"}, {"measurement": "LOAEL", "setting": "mouse [2]; [15]", "value": 350, "unit": "mg/kg/day"}, {"measurement": "LOAEL", "setting": "mouse [3]; [16]", "value": 1520, "unit": "mg/kg/day"}, {"measurement": "NOAEL", "setting": "mouse [3]; [16]", "value": 438, "unit": "mg/kg/day"}, {"measurement": "LEL", "setting": "mouse [3]; [17]", "value": 14, "unit": "mg/kg/day"}, {"measurement": "NEL", "setting": "mouse [3]; [17]", "value": "< 14", "unit": "mg/kg/day"}, {"measurement": "LEL", "setting": "rabbit [4]; [18]", "value": 350, "unit": "mg/kg/day"}, {"measurement": "LOAEL", "setting": "rabbit [4]; [18]", "value": 350, "unit": "mg/kg/day"}, {"measurement": "NEL", "setting": "rabbit [4]; [18]", "value": 100, "unit": "mg/kg/day"}, {"measurement": "NOAEL", "setting": "rabbit [4]; [18]", "value": 100, "unit": "mg/kg/day"}, {"measurement": "LEL", "setting": "rabbit [4]; [19]", "value": 350, "unit": "mg/kg/day"}, {"measurement": "LOAEL", "setting": "rabbit [4]; [19]", "value": 350, "unit": "mg/kg/day"}, {"measurement": "NEL", "setting": "rabbit [4]; [19]", "value": 100, "unit": "mg/kg/day"}, {"measurement": "NOAEL", "setting": "rabbit [4]; [19]", "value": 100, "unit": "mg/kg/day"}, {"measurement": "LOAEL", "setting": "rat [5]; systemic / organ weight / liver / absolute + systemic / organ weight / liver / relative to body weight", "value": 24.5, "unit": "mg/kg/day"}, {"measurement": "LEL", "setting": "rat [5]; [20]", "value": 5.9, "unit": "mg/kg/day"}, {"measurement": "NEL", "setting": "rat [5]; [20]", "value": "< 5.9", "unit": "mg/kg/day"}, {"measurement": "NOAEL", "setting": "rat [5]; [20]", "value": 5.9, "unit": "mg/kg/day"}]}
{"smiles": "COc1cc(OC)nc(NC(=O)[N-]S(=O)(=O)c2ncccc2OCC(F)(F)F)n1.[Na+]", "note": "[Trifloxysulfuron-sodium]", "values": [{"measurement": "LEL", "setting": "rabbit [6]; [21]", "value": 100, "unit": "mg/kg/day"}, {"measurement": "LOAEL", "setting": "rabbit [6]; [21]", "value": 100, "unit": "mg/kg/day"}, {"measurement": "NEL", "setting": "rabbit [6]; [21]", "value": 50, "unit": "mg/kg/day"}, {"measurement": "NOAEL", "setting": "rabbit [6]; [21]", "value": 50, "unit": "mg/kg/day"}, {"measurement": "LEL", "setting": "rabbit [6]; [22]", "value": 250, "unit": "mg/kg/day"}, {"measurement": "LOAEL", "setting": "rabbit [6]; [22]", "value": 250, "unit": "mg/kg/day"}, {"measurement": "NEL", "setting": "rabbit [6]; [23]", "value": 100, "unit": "mg/kg/day"}, {"measurement": "NOAEL", "setting": "rabbit [6]; [23]", "value": 100, "unit": "mg/kg/day"}, {"measurement": "LEL", "setting": "rat [7]; [24]", "value": 631, "unit": "mg/kg/day"}, {"measurement": "LOAEL", "setting": "rat [7]; [24]", "value": 631, "unit": "mg/kg/day"}, {"measurement": "NEL", "setting": "rat [7]; [24]", "value": 78.8, "unit": "mg/kg/day"}, {"measurement": "NOAEL", "setting": "rat [7]; [24]", "value": 78.8, "unit": "mg/kg/day"}, {"measurement": "LEL", "setting": "rat [7]; [25]", "value": 631, "unit": "mg/kg/day"}, {"measurement": "LOAEL", "setting": "rat [7]; [25]", "value": 631, "unit": "mg/kg/day"}, {"measurement": "NEL", "setting": "rat [7]; [25]", "value": 78.8, "unit": "mg/kg/day"}, {"measurement": "NOAEL", "setting": "rat [7]; [25]", "value": 78.8, "unit": "mg/kg/day"}, {"measurement": "LEL", "setting": "mouse [8]; [26]", "value": 24.1, "unit": "mg/kg/day"}, {"measurement": "LOAEL", "setting": "mouse [8]; [26]", "value": 24.1, "unit": "mg/kg/day"}, {"measurement": "NEL", "setting": "mouse [8]; [27]", "value": 5.76, "unit": "mg/kg/day"}, {"measurement": "NOAEL", "setting": "mouse [8]; [27]", "value": 5.76, "unit": "mg/kg/day"}, {"measurement": "LEL", "setting": "rat [9]; [28]", "value": 99.3, "unit": "mg/kg/day"}, {"measurement": "LOAEL", "setting": "rat [9]; [28]", "value": 99.3, "unit": "mg/kg/day"}, {"measurement": "NEL", "setting": "rat [9]; [29]", "value": 23.7, "unit": "mg/kg/day"}, {"measurement": "NOAEL", "setting": "rat [9]; [29]", "value": 23.7, "unit": "mg/kg/day"}, {"measurement": "LEL", "setting": "rat [10]; systemic / clinical chemistry / cytochrome p450, nos / cytochrome p450, nos", "value": 239, "unit": "mg/kg/day"}, {"measurement": "LOAEL", "setting": "rat [10]; [26]", "value": 1050, "unit": "mg/kg/day"}, {"measurement": "NEL", "setting": "rat [10]; [30]", "value": 65.7, "unit": "mg/kg/day"}, {"measurement": "NOAEL", "setting": "rat [10]; [30]", "value": 507, "unit": "mg/kg/day"}, {"measurement": "LEL", "setting": "rat [11]; [31]", "value": 30, "unit": "mg/kg/day"}, {"measurement": "NEL", "setting": "rat [11]; [31]", "value": "< 30", "unit": "mg/kg/day"}, {"measurement": "LOAEL", "setting": "rat [11]; [32]", "value": 1000, "unit": "mg/kg/day"}, {"measurement": "NOAEL", "setting": "rat [11]; [32]", "value": 300, "unit": "mg/kg/day"}, {"measurement": "LOAEL", "setting": "rat [11]; [33]", "value": 1000, "unit": "mg/kg/day"}, {"measurement": "NEL", "setting": "rat [11]; [33]", "value": 30, "unit": "mg/kg/day"}, {"measurement": "NOAEL", "setting": "rat [11]; [33]", "value": 300, "unit": "mg/kg/day"}, {"measurement": "LEL", "setting": "rat [11]; group: maternal, systemic / in life observation / food consumption / food consumption", "value": 300, "unit": "mg/kg/day"}, {"measurement": "LEL", "setting": "dog [12]; systemic / pathology gross / lung / foci", "value": 15, "unit": "mg/kg/day"}, {"measurement": "NEL", "setting": "dog [12]; [34]", "value": 6.51, "unit": "mg/kg/day"}, {"measurement": "NOAEL", "setting": "dog [12]; [34]", "value": 51.1, "unit": "mg/kg/day"}, {"measurement": "LOAEL", "setting": "dog [12]; systemic / pathology gross / lung / foci + systemic / pathology microscopic / lung / thickened", "value": 123, "unit": "mg/kg/day"}, {"measurement": "LEL", "setting": "dog [13]", "value": 164, "unit": "mg/kg/day"}, {"measurement": "LOAEL", "setting": "dog [13]", "value": 164, "unit": "mg/kg/day"}, {"measurement": "NEL", "setting": "dog [13]", "value": 19.8, "unit": "mg/kg/day"}, {"measurement": "NOAEL", "setting": "dog [13]", "value": 19.8, "unit": "mg/kg/day"}]}
